From PubChem BioAssay (NCI)
Values joined by “and” are separate entries in the source; they are usually repeats but may differ in a detail not shown here. Equal entries are not always repeated.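 Results reflect a 48-hour exposure of cells in 96-well plates to compound at five concentrations. Abbreviation: GI50, concentration required for 50% inhibition of growth. TGI denotes the concentration required for complete inhibition of growth.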

Tests used:
Test in all cases: NCI-60 cell line screen, 48 h
SF-295 CNS = tested on: SF-295 CNS
TK-10 renal = tested on: TK-10 renal
IGROV1 ovarian = tested on: IGROV1 ovarian
KM12 colon = tested on: KM12 colon
ACHN renal = tested on: ACHN renal
OVCAR-4 ovarian = tested on: OVCAR-4 ovarian
SF-539 CNS = tested on: SF-539 CNS
SK-OV-3 ovarian = tested on: SK-OV-3 ovarian
SNB-75 CNS = tested on: SNB-75 CNS
HCT-15 colon = tested on: HCT-15 colon

Compound | GI50 (SF-295 CNS) [µM] | TGI (SF-295 CNS) | GI50 (TK-10 renal) [µM] | TGI (TK-10 renal) | GI50 (IGROV1 ovarian) [µM] | TGI (IGROV1 ovarian) | GI50 (KM12 colon) [µM] | TGI (KM12 colon) | GI50 (ACHN renal) [µM] | TGI (ACHN renal) | GI50 (OVCAR-4 ovarian) [µM] | TGI (OVCAR-4 ovarian) | GI50 (SF-539 CNS) [µM] | TGI (SF-539 CNS) | GI50 (SK-OV-3 ovarian) [µM] | TGI (SK-OV-3 ovarian) | GI50 (SNB-75 CNS) [µM] | TGI (SNB-75 CNS) | GI50 (HCT-15 colon) [µM] | TGI (HCT-15 colon)
COc1cc2c(c(OC)c1OC)-c1cc(I)c(O)cc1[C@@H](NC(C)=O)CC2 | 0.037 | > 100 µM | > 44.6 | > 100 µM | 0.137 | > 31.6 µM | 0.0432 | 1.36 µM | 0.383 | > 100 µM | 0.105 | > 100 µM | 0.0314 | 0.178 µM | 0.0476 | > 65.8 µM | 0.0332 | > 92.5 µM | 0.118 | > 100 µM
CCSC[C@@H]1C[C@](O)(c2ccccc2)[C@@H](c2ccccc2)O1 | 46.2 | > 100 µM | > 91.7 | > 100 µM | 59.5 | > 100 µM | > 75.8 | > 100 µM | > 88 | > 100 µM | 66.9 | > 100 µM | > 100 | > 100 µM | > 100 | > 100 µM | 61.4 | > 100 µM | 82.1 | > 100 µM
Cc1cc(C)c2nc3c(c(C(O)C4CCCCN4)c2c1)CC/C3=C\c1ccc(Cl)cc1 (configuration not stated) |  | > 100 µM |  | > 100 µM |  | > 100 µM |  | > 100 µM |  | > 100 µM |  | > 100 µM |  | > 100 µM |  | > 100 µM |  | > 100 µM |  | > 100 µM
CC[C@H](C)[C@H](NC(=O)[C@H]1CCCCN1C)C(=O)N(C)[C@H](CCc1nc(C(=O)N[C@@H](Cc2ccccc2)C[C@H](C)C(=O)O)cs1)C(C)C | 0.143 |  | > 14.9 | > 25 µM | 0.223 | > 25 µM | 0.115 | > 25 µM | 1.37 | > 25 µM | 1.94 | > 25 µM | 0.0888 | 1.14 µM | 0.585 | > 25 µM | 0.0621 | > 25 µM | 1.34 | > 25 µM
COc1cc2c(oc(=O)c3c4occc4cc(OC)c23)c2cccc(O)c12 |  | > 100 µM |  | > 100 µM |  | > 100 µM |  | > 100 µM |  | > 100 µM |  | > 100 µM |  | > 100 µM |  | > 100 µM |  | > 100 µM |  | > 100 µM
Clc1ccc(C=Nc2ccc(-c3nc4ccccc4[nH]3)cc2)cc1 | > 100 | > 100 µM | > 100 | > 100 µM | > 100 | > 100 µM | > 100 | > 100 µM | > 100 | > 100 µM | > 100 | > 100 µM | > 100 | > 100 µM | > 100 | > 100 µM | 77.7 | > 100 µM | > 100 | > 100 µM
O=C1CCC(c2ccccc2)=NN1c1nc2ccccc2s1 |  | > 85.2 µM |  | > 88 µM |  | > 100 µM |  | > 100 µM |  | > 100 µM |  | > 100 µM |  | > 63.7 µM |  | 79.6 µM |  | > 79.4 µM |  | 99.1 µM
CCN(CC)c1ccc(/C=N/NC(=O)Cc2ccc(Nc3ccnc(C(F)(F)F)c3)cc2)c(O)c1 | 0.713 | > 60 µM | 0.461 | > 100 µM | 0.472 | > 22 µM | 0.826 | > 100 µM | 0.399 | > 26.9 µM | 0.442 | > 100 µM | 0.652 | 7.02 µM | 0.359 | > 100 µM | 2.12 | > 61.1 µM | 0.373 | > 100 µM
Cn1cc(-c2cc(-c3cn(C)c4ccccc34)[nH]n2)c2ccccc21 | 17.1 | > 100 µM | 37.4 | > 100 µM | 8.9 | 74.1 µM | 4.58 | > 100 µM | 7.68 | > 100 µM | 34.9 | > 100 µM | 16.2 | 44.3 µM | 31.6 | > 100 µM | 18.4 | 69.9 µM | 8.68 | > 100 µM
CCOc1ccc(NC(=O)CC2SC(=Nc3ccc(C)cc3)NC2=O)cc1 (configuration not stated) |  | > 100 µM |  | > 100 µM |  | > 100 µM |  | > 100 µM |  | > 100 µM |  | > 100 µM |  | > 100 µM |  | > 100 µM |  | > 100 µM |  | > 100 µM
NC(=NCCCCCCN=C(N)/N=C(\N)Nc1ccc(Cl)cc1)/N=C(\N)Nc1ccc(Cl)cc1 | 0.966 | 2.35 µM | 2.13 | 8.9 µM | 1.28 | 3.16 µM | 0.927 | 1.74 µM | 2.18 | 8.36 µM | 1.72 | 6.46 µM | 1.62 | 3.98 µM | 0.916 | 5.54 µM | 1.03 | 2.92 µM | 2 | 9.46 µM
O=C(O)CNc1ccc2c(c1)Cc1cc(Br)ccc1-2 |  | 97 µM |  | > 84.6 µM |  | > 100 µM |  | 50.7 µM |  | > 100 µM |  | 87.2 µM |  | 58.4 µM |  | 98.5 µM |  | > 89.8 µM |  | > 100 µM
COC(=O)[C@@]12OC[C@]34[C@H]([C@@H](O)[C@@H]1O)[C@@]1(C)CC(=O)C(O)=C(C)[C@@H]1C[C@H]3OC(=O)[C@H](OC(=O)/C=C(\C)C(C)C)[C@@H]24 |  | 0.0345 µM and 0.0582 µM | 0.0235 | 0.0719 µM and 0.0333 µM |  | 0.0153 µM and 0.059 µM |  | 0.03 µM and 0.146 µM and 0.0574 µM | 0.02 | 0.026 µM and 0.0124 µM and 0.0245 µM | 0.00334 | 0.017 µM and 0.0225 µM |  | 0.00611 µM and 0.0234 µM |  | 0.0254 µM and 0.175 µM |  | 0.0186 µM and 0.0203 µM |  | 0.0588 µM and 0.0562 µM and 0.055 µM
CCOc1ccc2nc(NC(=O)C(=O)C3C(=O)C(CC4C(=O)c5ccccc5C4=O)C(=O)CC3(C)C)sc2c1 (configuration not stated) |  | > 100 µM |  | > 100 µM |  | > 100 µM |  | > 100 µM |  | > 100 µM |  | > 100 µM |  | > 100 µM |  | > 100 µM |  | > 100 µM |  | > 100 µM
O=C1/C(=C/c2ccc(Cl)cc2)CCC1CNc1ccc(Cl)cc1 (configuration not stated) |  | > 100 µM |  | 21.8 µM |  | 27.3 µM |  | 11.7 µM |  | 26.9 µM |  | 54.5 µM |  | 23.3 µM |  | > 31.4 µM |  | 85.2 µM |  | 15.3 µM
